The text below walks through data of patent US12264163B2, “Compounds and methods for treating fibrotic pathologies” (Mayo Foundation for Medical Education and Research, priority 2019, dated 2025).

For data set [1], the system named is lung fibroblasts. In words: Fibroblast proliferation (counting DAPI nuclei). The class given is cell-based, human. As for the experimental part: IPF fibroblast and Normal lung fibroblast co-culture proliferation. Cell are prelabelled with fluorescent dyes (red and green) and then cocultured at a ratio of about 1:1 in 96 well plates. Cell counts are determined every 24 hours and plotted as a ratio of IPF/HLF cells. In the control wells the IPF cells outgrow and take over the well. N=2.
Proliferation of lung fibroblasts (IMR-90 cells) measured for 4 days in the presence of GPCR agonists ET-1 (100 nM) and LPA (10 μM)+/−10 μM DHX. Cells were fixed and counted with DAPI at the end of each day. N=3 technical triplicates.
Adult lung fibroblasts plated into 96-well plates, stimulated with 2 ng/mL TGFβ and compounds at the indicated concentration. Proliferation determined by fixing and counting DAPI nuclei using a Cytation 5. N=2.
Fibroblasts were stimulated with 2 ng/mL TGFβ and treated with compound 1 (MS-9) at the indicated concentration (0.1 μM, 1 μM, and 10 μM). Proliferation determined by fixing and counting DAPI nuclei using a Cytation.

The test system of data set [2] is normal healthy mice. The settings on record: mouse, in vivo. On the procedure:
Bleomycin model of pulmonary fibrosis was used to test the efficacy of DHX in vivo in experimental fibrosis. Mice were administered bleomycin intratracheally at Day 0. On Day 10 injury and inflammation typically subside and fibrosis is ongoing. At Day 10 mice were randomized into two groups, one receiving DHX (5 mg/kg once daily i.n.) and the other, vehicle control. […] At day 24 the mice were sacrificed and compared using histology, hydroxyproline and qPCR. […] To assess whether DHX adversely effects lung remodeling in the absence of fibrosis, we also exposed control mice to DHX following an identical time course and route of exposure.

Data set [3] concerns YAP/TAZ. Put plainly: YAP/TAZ localization in lung alveolar epithelial and endothelial cells. The format is cell-based, human. The conditions noted are these: pulmonary (alveolar) epithelial and endothelial cells. On the procedure: N=4 (****p<0.0001 vs. 0.1% DMSO vehicle control)
N=3 (****p<0.0001 vs. 0.1% DMSO vehicle control).
Human lung fibroblasts and alveolar epithelial cells are treated with MS-9 and influence on YAP/TAZ localization is determined.
Immunofluorescence Microscopy: Cells were plated into 96 well plates (Corning 3603) in their specific growth media and allowed to attach (8 hours). Media was then exchanged for the indicated conditions for each experiment. Cells were fixed in 3.7% formalin (Sigma-Aldrich), permeabilized in 0.25% Triton X-100 (Sigma-Aldrich) and then blocked with 1% BSA for 1 h. Cells or tissue sections were incubated overnight with mouse monoclonal antibody against αSMA (Sigma-Aldrich F3777), and/or a rabbit monoclonal antibody against YAP/TAZ (Cell Signaling D24E4) diluted 1:200 in PBS with 1% BSA. […] For scoring αSMA positive cells (FIG. 12), an observer blinded to the treatment conditions counted αSMA-positive cells using a visual threshold for bright fibrous staining; a minimum of 200 cells was counted for each condition. YAP/TAZ localization was quantified (FIGS. 6-10, 24-26, and 29-30) using Gen5 (Biotek) software. […] Quantification of double positive (YAP/TAZ and αSMA) cells from lung tissue sections (FIG. 17-21) was performed similarly; however separate thresholds were established for both YAP/TAZ and αSMA. A minimum of 4000 cells was quantified for each mouse.

The subject of data set [4] is IPF patient derived fibroblasts. Put plainly: Traction force microscopy of IPF patient-derived fibroblasts. The format is cell-based, human. The conditions noted are these: IPF fibroblasts on 6.4 kPa matrices. As for the experimental part:
Traction Force Microscopy: Traction analysis was conducted as previously described. […] IPF patient derived fibroblasts were plated on the gels overnight and treated as indicated before traction force measurements. Images of gel surface-conjugated fluorescent beads were acquired for each cell before and after trypsinization using a Nikon ECLIPSE Ti microscope at ×10 magnification. Traction forces were estimated by measuring bead displacement fields and computing corresponding traction fields using TractionsForAll (freely distributed program that calculates 2-D tractions exerted by an adherent cell on its substrate).

For data set [5], the system named is YAP/TAZ. In words: YAP/TAZ nuclear localization in IMR-90 and other fibroblasts / mesenchymal cells (immunofluorescence). The class given is cell-based, human. The settings on record: for YAP/TAZ nuclear localization: fibroblasts / mesenchymal cells on plastic, 2 hours.

Consider `Oc1cc2c(cc1O)[C@H]1c3ccccc3CN[C@@H]1CC2` (racemic) [Dihydrexidine], for which, in data set [1] (4 days, ET-1, LPA, TGFβ or CTGF +/− 10 μM DHX), the “proliferation of lung fibroblasts” value was “blocks proliferation”. In addition, the “IPF fibroblast and normal lung fibroblast co-culture proliferation” value in data set [1] (co-culture about 1:1, ratio of IPF/HLF cells every 24 hours) was “selectively slows proliferation in IPF fibroblasts”. For the same compound, in data set [2], the body weight result is “did not alter body weight”; the “expression of Ctgf, Col1a1, Acta2, and Fn1” value was “did not alter expression of Ctgf, Col1a1, Acta2, and Fn1”; the lung collagen deposition result is “did not alter lung collagen deposition”; the lung histology result is “did not alter lung histology”. In addition, the “YAP/TAZ localization in epithelial / endothelial cells” value in data set [3] was “no effect on YAP/TAZ localization”. For the same compound, in data set [4], the “contractile forces (traction force microscopy)” value is “significantly and dose-dependently reduced the contractile forces”. In data set [5] (confluent fibroblasts, endothelin-1, lysophosphatidic acid, serotonin, DHX 10 μM), the “YAP/TAZ nuclear localization stimulated by GPCR ligands” value is “blocked nuclear localization of YAP/TAZ”. Besides, the YAP/TAZ nuclear localization result in data set [5] is reported as “reduced nuclear localization of YAP/TAZ”. For the same compound, the YAP/TAZ nuclear localization result in data set [5] (listed as DHX) is listed as “effective at inhibiting YAP/TAZ nuclear localization”. For the same compound, the “potency of inhibition of YAP/TAZ nuclear localization, normal vs IPF lung fibroblasts” value in data set [5] (normal lung fibroblasts vs those from a patient with IPF) is “equally potent”.
